Experiment [1] deals with T1, full-length HCV NS3 protein fused to eGFP (UniProt P27958+Q96SW2).
T1 construct: expressing the full-length HCV NS3 protein fused to eGFP; mCherry via FMVD 2A self-cleavage linker (C, cleaved yes); expressed in transfected cells
The experiment can be described thus: Transient cellular HCV NS3 degradation assay. Format: cell-based, Hepatitis C virus. To be noted: 4 hour treatment. From the text: A system was set up to monitor NS3 degradation in the absence of other processes of the infectious viral cycle. […] Expressed in the absence of its cofactor, NS4A, the NS3 protein lacks any enzymatic activity, and the abundance of the NS3-eGFP fusion protein can be reliably monitored by eGFP fluorescence. Since the mCherry portion of the fusion protein is cleaved off during translation, its abundance in cells is not affected by small molecule-induced degradation of NS3-eGFP, and thus it serves as a control for protein expression. […]
The NS3 expressing cells were treated with increasing concentrations of compounds 13 and 22 for 4 hours. […] Compound 11 is an alpha-hydroxylamide analog of compound 13 that cannot form a covalent bond with the catalytic serine of the HCV NS3/4A protease due to a modification of the α-ketoamide group. […] The NS3 expressing cells were treated with increasing concentrations of compounds for 4 hours.

The test system of experiment [2] is HCV(NS3-A156S). Put plainly: Viral resistance assay, HCV(NS3-A156S). The format is cell-based, Hepatitis C virus. The method, then: (§1) Mutations A156S and V55A, two well-characterized resistance mutations that are located in the active site of the HCV NS3 protease where telaprevir binds, were selected. Infectious HCV clones bearing the NS3-V55A mutation or the NS3-A156S mutation were generated.
(§2) Huh7.5 cells were infected with wildtype HCV, or the telaprevir-resistant mutant viruses, HCV(NS3-V55A) and HCV(NS3-A156S). Cells were treated 24 hours after infection with a range of small molecule concentrations. The amount of infectious virus released to the supernatants at 48 hours post-infection/24 hours post-treatment was measured using a 50% tissue infectious dose (TCID50) assay. The concentration of compound that led to a 50% reduction in viral titers (IC50) was determined by non-linear regression.

Experiment [3] deals with wildtype HCV. Put plainly: Viral resistance assay, wildtype HCV. To be noted: Hepatitis C virus, Huh7.5, read-out: IC50, 50% reduction in viral titers. Format: cell-based. The method, then: as §1, §2
Experiment [4] concerns HCV subgenomic replicon in Huh7.5 cells. The experiment can be described thus: Antiviral subgenomic replicon assay. Format: cell-based. To be noted: Hepatitis C virus, Huh7.5, 48 h, read-out: IC50, 50% reduction in reporter (luciferase) expression levels. The method, then:
(§3) The antiviral activity of the degraders was evaluated in cell culture in a subgenomic replicon assay and an infectious assay. In the subgenomic replicon assay, the hepatoma cell line Huh7.5 was transfected with a HCV subgenomic replicon and treated with small molecules. The luciferase activity encoded by the subgenomic replicon served as a measure for viral replication. In the infectious assay, Huh7.5 cells were infected with HCV, and treated with small molecules. The amount of infectious virus released to the supernatants after treatment with the small molecule degraders served as a measure for their antiviral activity. […] The activity of the compounds described herein is dependent on protein degradation mediated by the cereblon E3 ligase, as HCV NS3 levels are partially rescued in the cereblon-deficient Huh7.5 cell line.
Huh7.5 cells were electroporated with the HCV subgenomic replicon and treated after 24 hours with a range of small molecule concentrations. The luciferase activity encoded by the replicon was measured in cells at 48 hours post-electroporation/24 hours post-treatment. The concentration of compound that led to a 50% reduction in reporter expression levels (IC50) was determined by non-linear regression.

The subject of experiment [5] is HCV in Huh7.5 cells. The experiment can be described thus: Antiviral infectious assay (TCID50). The format is cell-based, Hepatitis C virus. The following applies: for IC50: Hepatitis C virus, read-out: IC50, 50% reduction in viral titers. The method, then:
as §3
Huh7.5 cells were infected with HCV and treated after 24 hours with a range of small molecule concentrations. The amount of infectious virus released to the supernatants at 48 hours post-infection/24 hours post-treatment was measured using a 50% tissue infectious dose (TCID50) assay. The concentration of compound that led to a 50% reduction in viral titers (IC50) was determined by non-linear regression.

In experiment [6] the test system is HCV(NS3-V55A). Put plainly: Viral resistance assay, HCV(NS3-V55A). The format is cell-based, Hepatitis C virus. The method, then: as §1, §2
Experiment [7] concerns the target T2, HCV NS3 fusion protein (UniProt P27958+Q96SW2).
T2 construct: expressing the full-length HCV NS3 protein fused to eGFP; mCherry via FMVD 2A self-cleavage linker (C, cleaved yes); expressed in transfected cells
The experiment can be described thus: NS3 degradation competition assay with lenalidomide. The format is cell-based, Hepatitis C virus. The following applies: excess of cereblon ligand lenalidomide; Western blot. The text has this:
The expression of the NS3 fusion protein was induced prior to the treatment of the NS3 expressing cells with an excess of the cereblon ligand lenalidomide.
FIG. 3 is a photograph of a Western blot showing degradation of HCV NS3 in the absence and presence of lenalidomide.

Data on two molecules can be found in patent publication US12642856B2, “Degraders of hepatitis C virus NS3/4A protein” (DANA-FARBER CANCER INSTITUTE, INC., priority 2018, dated 2026).

As a reminder, the IC50 is the concentration at which inhibition is half-maximal.

Read-outs that look alike come from different tables or passages of the source.

As to `CCC[C@H](NC(=O)[C@@H]1[C@H]2CCC[C@H]2CN1C(=O)[C@@H](NC(=O)[C@@H](NC(=O)c1cnccn1)C1CCCCC1)C(C)(C)C)C(=O)C(=O)NC1CC1` [telaprevir, reference compound], in experiment [1] (increasing concentrations), the “degradation of transiently expressed HCV NS3 (decrease in NS3-eGFP abundance)” value is given as “not observed”. Also, in experiment [2], the “change in antiviral potency, NS3-A156S vs wildtype” value is 10 fold. In addition, the 50% inhibitory concentration (IC50) in experiment [3] was found to be 98 nM; in experiment [4], 240 nM; in experiment [5] (Huh7.5, 48 h), 138 nM. In addition, the “change in antiviral potency, NS3-V55A vs wildtype” value in experiment [6] amounted to 3 fold.

Turning to `CCC[C@H](NC(=O)[C@@H]1[C@H]2CCC[C@H]2CN1C(=O)[C@@H](NC(=O)[C@@H](NC(=O)c1cnc(C(=O)NCCOCCOCCOc2cc3c4c(cccc4c2)C(=O)N(C2CCC(=O)NC2=O)C3=O)cn1)C1CCCCC1)C(C)(C)C)C(=O)C(=O)NC1CC1` (stereo partly drawn) [Compound 13, N2-((S)-1-cyclohexyl-2-((S)-1-((1S,3aR,6aS)-1-((S)-1-(cyclopropylamino)-1,2-dioxohexan-3-ylcarbamoyl)hexahydrocyclopenta[c]pyrrol-2(1H)-yl)-3,3-dimethyl-1-oxobutan-2-ylamino)-2-oxoethyl)-N5-(2-(2-(2-(2-(2,6-dioxopiperidin-3-yl)-1,3-dioxo-2,3-dihydro-1H-benzo[de]isoquinolin-5-yloxy)ethoxy)ethoxy)ethyl)pyrazine-2,5-dicarboxamide], the DC50 in experiment [1] (read-out: IC50, concentration that led to a 50% reduction in NS3-eGFP accumulation, flow cytometry) came to 50 nM. Further, the “change in antiviral potency, NS3-A156S vs wildtype” value in experiment [2] came to 3 fold. Moreover, the IC50 in experiment [2] (read-out: IC50, 50% reduction in viral titers, HCV(NS3-A156S), Huh7.5, TCID50) was determined as 1560 nM; in experiment [3], 522 nM; in experiment [5] (Huh7.5 cells, 48 hours post-infection/24 hours post-treatment, TCID50) it was 744 nM; in experiment [6] (read-out: IC50, 50% reduction in viral titers, HCV(NS3-V55A), Huh7.5, TCID50), 508 nM. Moreover, the “antiviral activity compared with telaprevir” value in experiment [5] (subgenomic replicon and infectious assays, Huh7.5) is recorded as “antiviral potency close to that of the parental compound”. Also, in experiment [7], the “effect of lenalidomide on compound-induced degradation of NS3” value is “Lenalidomide inhibited degradation of NS3”.
